The structures appear in SMILES notation.

The data set in a line: Particle size distribution of micronized cinacalcet hydrochloride by Malvern Mastersizer. The conditions noted are these: particle size after jet milling. The class given is physicochemical. As to the method: Micronization of cinacalcet hydrochloride was carried out by Jet Milling. Particle size of micronized cinacalcet hydrochloride was measured with Malvern Mastersizer.
Take `C[C@@H](NCCCc1cccc(C(F)(F)F)c1)c1cccc2ccccc12.Cl` [Batch No 60002, N-[1-(R)-(−)-(1-naphthyl)ethyl]-3-[3(trifluoromethyl)phenyl]-1-aminopropane hydrochloride]: the D10 is listed as 4.06 μm, the D50 was 9.58 μm and the D90 is reported as 18.8 μm.
Regarding `C[C@@H](NCCCc1cccc(C(F)(F)F)c1)c1cccc2ccccc12.Cl` [Batch No 70001, N-[1-(R)-(−)-(1-naphthyl)ethyl]-3-[3(trifluoromethyl)phenyl]-1-aminopropane hydrochloride], the D10 is reported as 2.66 μm, the D50 is reported as 6.55 μm and the D90 is 13.4 μm.
On to `C[C@@H](NCCCc1cccc(C(F)(F)F)c1)c1cccc2ccccc12.Cl` [Batch No 70002, N-[1-(R)-(−)-(1-naphthyl)ethyl]-3-[3(trifluoromethyl)phenyl]-1-aminopropane hydrochloride], for which the D10 is reported as 2.35 μm, the D50 was 6.81 μm and the D90 is 15.4 μm.
Turning to `C[C@@H](NCCCc1cccc(C(F)(F)F)c1)c1cccc2ccccc12.Cl` [Micronized cinacalcet hydrochloride, N-[1-(R)-(−)-(1-naphthyl)ethyl]-3-[3(trifluoromethyl)phenyl]-1-aminopropane hydrochloride], the D10 is reported as no more than 5 μm, the D50 is listed as no more than 10 μm and the D90 is recorded as no more than 20 μm.

The record behind these values is patent US11331283B2, “Pharmaceutical compositions comprising cinacalcet hydrochloride and one or more binders” (UNICHEM LABORATORIES LTD, priority 2017, dated 2022).
